The source of these data is US20260297092A1, “PYRAZOLOPYRIMIDINE DERIVATIVES AS INHIBITORS OF NLRP3” (Takeda Pharmaceutical Company Limited, priority 2023, published 2026).

The first experiment relates to NLRP3 inflammasome (IL-1β production in THP-1 cells). Put plainly: IL-1β TR-FRET Assay (percentage of inhibition at 300 nM, 6 μM or 10 μM). Type of experiment: cell-based, human. The conditions noted are these: Homo sapiens, THP-1, 300 nM, LPS priming, ATP activation, read-out: IL-1β inhibitory rate at 300 nM (%). As for the experimental part:
The biological activity of the compound of Formula 1 with respect to NLRP3 was determined using the following in vitro method.
IL-1β TR-FRET Assay (reported as percentage of inhibition at 300 nM, 6 μM or 10 μM)
Monocytic THP-1 cells (ATCC: TIB-202) were maintained in accordance with the provider's instructions in RPMI media (Life Technologies, Cat #A10491-01); RPMI was supplemented with 10% heat inactivated fetal bovine serum (Corning, Cat #35-010-CV). The cells were differentiated into macrophages by the addition of 25 ng/mL IFN-γ (PeproTech, Cat #AF-300-02-100UG) for 24 hours at 37° C./5% CO2. Media was exchanged with fresh media with no FBS, and the cells were treated with 50 ng/mL LPS (priming step) (LPS-EK: Invivogen, Cat #tlrl-peklps). The cells were plated at 20,000 cells per well in 384-well flat-bottom cell culture plates (FALCON, Cat #353962) and were incubated for 24 hours at 37° C./5% CO2. Compounds were serially diluted (half log or 5-fold dilutions) with DMSO and were finally diluted with Media with no FBS. The compounds were added to the cells in 384-well plates (added in 1:3) and then the plates were incubated for 30 minutes at 37° C./5% CO2. The NLRP3 inflammasome was activated with the addition of 20 mM ATP (Sigma Cat #A3377-25G) and the cells were incubated for 2 hours at 37° C./5% CO2. At the end of the incubation period, 30 μL supernatant was transferred to another 384-well plate and mixed on a plate shaker for 1 minute. The supernatant was mixed with HTRF Antibody (Human IL1 beta kit, Cisbio, 62HIL1BPEH) in assay plates (Greiner Bio-One, Cat #784075) and the assay plates were incubated in shading box at room temperature for 16-24 hours. HTRF signal was measured by EnVision (Perkinelmer) in accordance with the manufacturer's instructions.
The percentage of inhibition at 300 nM, 6 μM or 10 μM in the IL-1βTR-FRET assay was calculated by the following formula: Percentage of inhibition=[1−(HTRF signaltest−HTRF signalLow)/(HTRF signalHigh−HTRF signalLow)]*100, where HTRF signaltest is the HTRF signal in the well to which test compound is added, HTRF signalLow is the HTRF signal in the well to which 3 μM MCC-950 is added, and the HTRF signalHigh is the HTRF signal in the well to which DMSO is added.
For `CCOc1nc2nn(-c3c(F)cc(C4CC4)cc3C(O)C(F)F)cc2c(=O)[nH]1` (racemic) [Example 177, 2-[4-cyclopropyl-2-(2,2-difluoro-1-hydroxyethyl)-6-fluorophenyl]-6-ethoxy-2,5-dihydro-4H-pyrazolo[3,4-d]pyrimidin-4-one], the inhibition at 0.3 µM is 108%.

For `Cc1cc(C2CC2)cc(C)c1-n1cc2c(=O)[nH]c(C3CCCO3)nc2n1` (racemic) [Example 223, 2-(4-cyclopropyl-2,6-dimethylphenyl)-6-(oxolan-2-yl)-2,5-dihydro-4H-pyrazolo[3,4-d]pyrimidin-4-one], the inhibition at 0.3 µM worked out at 100%.

Turning to `Cc1cc(C2CC2)cc(C)c1-n1cc2c(=O)[nH]c(C3COCCO3)nc2n1` (racemic) [Example 232, 2-(4-cyclopropyl-2,6-dimethylphenyl)-6-(1,4-dioxan-2-yl)-2,5-dihydro-4H-pyrazolo[3,4-d]pyrimidin-4-one], the inhibition at 0.3 µM was 97%.

For the compound `CCOc1nc2nn(-c3c(C)cc(C)cc3F)cc2c(=O)[nH]1` [Example 78, 6-ethoxy-2-(2-fluoro-4,6-dimethylphenyl)-2,5-dihydro-4H-pyrazolo[3,4-d]pyrimidin-4-one], the inhibition at 0.3 µM worked out at 98%.

Consider `CCCc1ccc(-n2nc3nc(OCC)[nH]c(=O)c3c2C)c(O)c1` [Example 80, 6-ethoxy-2-(2-hydroxy-4-propylphenyl)-3-methyl-2,5-dihydro-4H-pyrazolo[3,4-d]pyrimidin-4-one], for which the inhibition at 0.3 µM was determined as 99%.

As to `CCOc1nc2nn(-c3c(F)cc(OC)cc3C(F)F)cc2c(=O)[nH]1` [Example 149, 2-[2-(difluoromethyl)-6-fluoro-4-methoxyphenyl]-6-ethoxy-2,5-dihydro-4H-pyrazolo[3,4-d]pyrimidin-4-one], the inhibition at 0.3 µM is 99%.

Turning to `COc1nc2nn(-c3c(OC)cc(C4CC4)cc3C(F)F)cc2c(=O)[nH]1` [Example 169, 2-[4-cyclopropyl-2-(difluoromethyl)-6-methoxyphenyl]-6-methoxy-2,5-dihydro-4H-pyrazolo[3,4-d]pyrimidin-4-one], the inhibition at 0.3 µM was 103%.

On to `Cc1cc(C2CC2)cc(C)c1-n1cc2c(=O)[nH]c(C(C)(C)O)nc2n1` [Example 172, 2-(4-cyclopropyl-2,6-dimethylphenyl)-6-(2-hydroxypropan-2-yl)-2,5-dihydro-4H-pyrazolo[3,4-d]pyrimidin-4-one], for which the inhibition at 0.3 µM is 61%.

Consider `CCOc1nc2nn(-c3c(C)cc(C4CC4)nc3C)cc2c(=O)[nH]1` [Example 174, 2-(6-cyclopropyl-2,4-dimethylpyridin-3-yl)-6-ethoxy-2,5-dihydro-4H-pyrazolo[3,4-d]pyrimidin-4-one], for which the inhibition at 0.3 µM is 108%.

On to `CCOc1nc2nn(-c3c(F)cc(C4(F)CC4)cc3Br)cc2c(=O)[nH]1` [Example 178, 2-[2-bromo-6-fluoro-4-(1-fluorocyclopropyl)phenyl]-6-ethoxy-2,5-dihydro-4H-pyrazolo[3,4-d]pyrimidin-4-one], for which the inhibition at 0.3 µM was 101%.

On to `Cc1nc2nn(-c3c(C)cc(C4CC4)cc3C)cc2c(=O)[nH]1` [Example 180, 2-(4-cyclopropyl-2,6-dimethylphenyl)-6-methyl-2,5-dihydro-4H-pyrazolo[3,4-d]pyrimidin-4-one], for which the inhibition at 0.3 µM was 99%.

For the compound `Cc1cc(C2CC2)cc(C)c1-n1cc2c(=O)[nH]c(CC(C)(C)O)nc2n1` [Example 181, 2-(4-cyclopropyl-2,6-dimethylphenyl)-6-(2-hydroxy-2-methylpropyl)-2,5-dihydro-4H-pyrazolo[3,4-d]pyrimidin-4-one], the inhibition at 0.3 µM worked out at 103%.

Turning to `CCOc1nc2nn(-c3ccc(C4(F)CC4)cc3F)cc2c(=O)[nH]1` [Example 183, 6-ethoxy-2-[2-fluoro-4-(1-fluorocyclopropyl)phenyl]-2,5-dihydro-4H-pyrazolo[3,4-d]pyrimidin-4-one], the inhibition at 0.3 µM came out at 96%.

For `Cc1cc(Br)cc(C)c1-n1cc2c(=O)[nH]c(-c3ccncn3)nc2n1` [Example 185, 2-(4-bromo-2,6-dimethylphenyl)-6-(pyrimidin-4-yl)-2,5-dihydro-4H-pyrazolo[3,4-d]pyrimidin-4-one], the inhibition at 0.3 µM came to 114%.

Turning to `Cc1nc2nn(-c3c(C)cc(Br)cc3C)cc2c(=O)[nH]1` [Example 187, 2-(4-bromo-2,6-dimethylphenyl)-6-methyl-2,5-dihydro-4H-pyrazolo[3,4-d]pyrimidin-4-one], the inhibition at 0.3 µM is 97%.

Turning to `Cc1cc(Br)cc(C)c1-n1cc2c(=O)[nH]c(C3(F)CC3)nc2n1` [Example 188, 2-(4-bromo-2,6-dimethylphenyl)-6-(1-fluorocyclopropyl)-2,5-dihydro-4H-pyrazolo[3,4-d]pyrimidin-4-one], the inhibition at 0.3 µM is 99%.

With `Cc1cc(Br)cc(C)c1-n1cc2c(=O)[nH]c([C@H]3CC3(F)F)nc2n1` [Example 189, 2-(4-bromo-2,6-dimethylphenyl)-6-(2,2-difluorocyclopropyl)-2,5-dihydro-4H-pyrazolo[3,4-d]pyrimidin-4-one], the inhibition at 0.3 µM was 99%.

`Cc1ccc(-n2cc3c(=O)[nH]c(OCCCC(F)(F)F)nc3n2)c(C)c1` [Example 196, 2-(2,4-dimethylphenyl)-6-(4,4,4-trifluorobutoxy)-2,5-dihydro-4H-pyrazolo[3,4-d]pyrimidin-4-one]: the inhibition at 0.3 µM is 55%.

`Cc1ccc(-n2cc3c(=O)[nH]c(OCCC(F)(F)F)nc3n2)c(C)c1` [Example 197, 2-(2,4-dimethylphenyl)-6-(3,3,3-trifluoropropoxy)-2,5-dihydro-4H-pyrazolo [3,4-d]pyrimidin-4-one]: the inhibition at 0.3 µM amounted to 60%.

For `Cc1cc(C2CC2)cc(C)c1-n1cc2c(=O)[nH]c([C@@H]3CCOC3)nc2n1` [Example 201, 2-(4-cyclopropyl-2,6-dimethylphenyl)-6-(oxolan-3-yl)-2,5-dihydro-4H-pyrazolo [3,4-d]pyrimidin-4-one], the inhibition at 0.3 µM is 99%.

As to `CCOc1nc2nn(-c3c(F)cc(C4CC4)cc3CC(F)(F)F)cc2c(=O)[nH]1` [Example 206, 2-[4-cyclopropyl-2-fluoro-6-(2,2,2-trifluoroethyl)phenyl]-6-ethoxy-2,5-dihydro-4H-pyrazolo[3,4-d]pyrimidin-4-one], the inhibition at 0.3 µM amounted to 97%.

Take `COc1nc2nn(-c3c(C)cc(C4CC4)cc3C(F)F)cc2c(=O)[nH]1` [Example 209, 2-[4-cyclopropyl-2-(difluoromethyl)-6-methylphenyl]-6-methoxy-2,5-dihydro-4H-pyrazolo[3,4-d]pyrimidin-4-one]: the inhibition at 0.3 µM is 103%.

In the case of `COCCOc1nc2nn(-c3c(C)cc(C4CC4)cc3C(F)F)cc2c(=O)[nH]1` [Example 210, 2-[4-cyclopropyl-2-(difluoromethyl)-6-methylphenyl]-6-(2-methoxyethoxy)-2,5-dihydro-4H-pyrazolo[3,4-d]pyrimidin-4-one], the inhibition at 0.3 µM came out at 101%.

In the case of `Cc1cc(C2CC2)cc(C)c1-n1cc2c(=O)[nH]c(COCC(F)F)nc2n1` [Example 212, 2-(4-cyclopropyl-2,6-dimethylphenyl)-6-[(2,2-difluoroethoxy)methyl]-2,5-dihydro-4H-pyrazolo[3,4-d]pyrimidin-4-one], the inhibition at 0.3 µM was 103%.

In the case of `Cc1cc(C2CC2)cc(C)c1-n1cc2c(=O)[nH]c(-c3cnn(C)c3)nc2n1` [Example 217, 2-(4-cyclopropyl-2,6-dimethylphenyl)-6-(1-methyl-1H-pyrazol-4-yl)-2,5-dihydro-4H-pyrazolo[3,4-d]pyrimidin-4-one], the inhibition at 0.3 µM amounted to 108%.

The experiment is the same for the next values; noted with them: Homo sapiens, THP-1, 6 μM, LPS priming, ATP activation, read-out: IL-1β inhibitory rate at 6 μM (%).
For `O=c1[nH]c(C2COCCO2)nc2nn(-c3c(F)cc(C4CC4)cc3C(F)F)cc12` (racemic) [Example 305, 2-[4-cyclopropyl-2-(difluoromethyl)-6-fluorophenyl]-6-(1,4-dioxan-2-yl)-2,5-dihydro-4H-pyrazolo[3,4-d]pyrimidin-4-one], the inhibition at 6 µM was found to be 103%.

Staying with this experiment, now noted: Homo sapiens, THP-1, 10 μM, LPS priming, ATP activation, read-out: IL-1β inhibitory rate at 10 μM (%).
As for `Cc1cc(Br)cc(C)c1-n1cc2c(=O)[nH]c([C@@H](C)C(=O)O)nc2n1` [Example 170, 2-[2-(4-bromo-2,6-dimethylphenyl)-4-oxo-4,5-dihydro-2H-pyrazolo [3,4-d]pyrimidin-6-yl]propanoic acid], the inhibition at 10 µM amounted to 136%.
